Reference: patent publication US12558345B2, “CHK1/2 inhibitors for use in the treatment of neuroblastomas and/or soft tissue sarcomas” (Eli Lilly and Company, priority 2015, dated 2026)
Structures can show the parent of a compound that is named as a salt.

System: Thirty solid tumor cell lines from 13 tumor histotypes
Assay: Monolayer Proliferation and Cytotoxicity Assay (Oncotest, modified PI assay)
Format: cell-based
Settings: 96 h, 4 days of treatment, PI fluorescence, read-out: EC50, growth inhibition of the majority of the tumor cell lines
Source text: One measure of potency of a CHK1 inhibitor is its ability to inhibit the proliferation of cancer cells in culture due to uncontrolled replication origin activation. (Conti et al. Cell Cycle 6: 2760-2767, 2007) Determination of CHK1 inhibitor antiproliferative activity in cell lines derived from a broad range of tumor types is indicative of which tumor types may be clinically responsive to chemotherapy with CHK1 inhibitors. The following described cellular proliferation assay is run at Oncotest, GmbH in Germany. Thirty solid tumor cell lines are derived from 13 different tumor histotypes, each represented by 1 to 6 different cell lines (Oncotest, GmbH). […] Briefly, adherent cells are harvested from exponential phase cultures by trypsinization, counted and plated in 96 well flat-bottomed microtiter plates at a cell density depending on the cell line (4.000-20.000 cells/well). […] Finally, PI fluorescence is measured using the Cytofluor 4000 microplate reader (excitation k=530 nm, emission k=620 nm) to determine the total viable cell number. Growth inhibition is expressed as Test/Control×100 (% T/C) values. Based on the T/C values, relative IC50 values are determined using non-linear regression (log[conc. of inhibitor] versus response (% T/C)).

In the case of `COc1cccc(OCCCN)c1-c1cc(Nc2cnc(C#N)cn2)n[nH]1` [Example 2, 5-(5-(2-(3-Aminopropoxy)-6-methoxyphenyl)-1H-pyrazol-3-ylamino)pyrazine-2-carbonitrile dihydrogen chloride salt], the EC50 is reported as under 20 nM.
